From ChEMBL document CHEMBL4610074, “Somuncurins: Bioactive Peptides from the Skin of the Endangered Endemic Patagonian Frog Pleurodema somuncurense” (J Nat Prod, 2020) come the findings set out here.

Calls of active or inactive are those of the source. The calls are words filed in the database; no cut-off is given here.

The test system of one series is Escherichia coli. As to the kind of experiment: Antibacterial activity against Escherichia coli ATCC 25922 incubated for 24 hrs under aerobic condition. The series is classed as functional. The settings on record: ATCC 25922, 24 h.
For another series, the system named is Staphylococcus aureus. As to the kind of experiment: Antibacterial activity against Staphylococcus aureus ATCC 29213 incubated for 24 hrs under aerobic condition. The series is classed as functional. The settings on record: ATCC 29213, 24 h.
The nature of series [1]: (§1) Hemolytic activity in human RBC at 180 uM measured after 1 hr relative to control. In kind it is ADME, cell-based, Erythrocyte. Conditions: red blood cells (erythrocytes), read-out: Activity.
Series [2] in a line: Cytotoxicity against human MDM cells after 24 hrs by resazurin dye based fluorescence assay. The series is classed as cell-based.
Series [3] in a line: Effect on LPS-induced ROS production in human CHME3 cells measured for 30 mins by microscopic method. Conditions: 0.5 h. In kind it is ADME, cell-based.
Series [4] has as its system Lipid bilayer. The series can be described thus: Binding affinity to Escherichia coli lipid extract large unilamellar vesicles incubated for 30 mins by laser-doppler technique.
Series [5] concerns Lipid bilayer. As to the kind of experiment: Binding affinity to Escherichia coli lipid extract large unilamellar vesicles assessed as change in tryptophan emission Spectra incubated for 30 mins by spectrofluorometric method.
The test system of series [6] is Lipid bilayer. The series can be described thus: Induction of pore formation in Escherichia coli lipid extract giant unilamellar vesicles at 640 ug/ml after 25 mins by fluorescence confocal microscopy. In kind it is functional.
Series [7] has as its system Lipid bilayer. The series can be described thus: Induction of rearrangement in Escherichia coli lipid extract large unilamellar vesicles assessed as altered colloidal property at 140 ug/ml to 640 ug/ml by dynamic light scattering analysis. The series is classed as functional.
Series [8] deals with Lipid bilayer. The series can be described thus: Induction of lipid aggregation in Escherichia coli lipid extract large unilamellar vesicles at 270 ug/ml by dynamic light scattering analysis. In kind it is functional.
Series [9] relates to Lipid bilayer. As to the kind of experiment: Induction of lipid aggregation in PC/bovine brain SPM/cholesterol large unilamellar vesicles at 140 ug/ml to 640 ug/ml by dynamic light scattering analysis.
Series [10] relates to Lipid bilayer. The series can be described thus: Induction of membrane disruption in Escherichia coli lipid extract large unilamellar vesicles assessed as carboxyfluorescein leakage at 640 ug/ml by fluorescence assay. In kind it is functional.
The test system of series [11] is Lipid bilayer. As to the kind of experiment: Induction of membrane disruption in PC/bovine brain SPM/cholesterol large unilamellar vesicles assessed as carboxyfluorescein leakage at 640 ug/ml by fluorescence assay.
Series [12] deals with Lipid bilayer. The series can be described thus: Induction of membrane disruption in Escherichia coli lipid extract large unilamellar vesicles assessed as carboxyfluorescein leakage at 250 ug/ml by fluorescence assay. The series is classed as functional.
A further series deals with Erythrocyte. Described as §1. The series is classed as ADME, cell-based. The settings on record: erythrocyte, 1 h, 180 µM.

By MIC is commonly meant the least concentration at which growth counts as inhibited. Higher therefore signals a need for much substance. H-DLASLARLYALAR-NH2: the MIC in the series on Escherichia coli and in the series with Staphylococcus aureus was greater than 700 µg/mL throughout.

As for H-DLLNGLLNPVLGIANGLTGGLVKK-NH2, the MIC with Escherichia coli and with Staphylococcus aureus was greater than 700 µg/mL throughout.

For the substance H-FIIWPLRYRK-NH2, the results for the minimum inhibitory concentration (MIC) in the series on Escherichia coli and in the series with Staphylococcus aureus were 180 µM and 360 µM, respectively. Also, in series [1], the hemolysis at 1 h, 180 µM was less than 5%. The Activity result is “Non-Toxic” in series [2]; “Non-Toxic” in series [3]; 36 mV in the series with Lipid bilayer [4]; “Non-Toxic” with Lipid bilayer [9]; 100% in the series on Lipid bilayer [10]; 20% in the series with Lipid bilayer [11]. Further, the outcome with Lipid bilayer [5] and with Lipid bilayer [6] was inactive. For the same substance, the outcome in the series with Lipid bilayer [7], with Lipid bilayer [8] and in the series with Lipid bilayer [12] was Active.

On to H-FILKRSYPQYY-NH2, for which the minimum inhibitory concentration (MIC) was 410 µM in the series on Escherichia coli and greater than 700 µg/mL with Staphylococcus aureus. The Activity entry is “Non-Toxic” in the series with Erythrocyte, “Non-Toxic” in series [2], “Non-Toxic” in series [3] and 23 mV in the series with Lipid bilayer [4].

As for H-NLVGSLLGGILKK-NH2, the MIC with Escherichia coli was 460 µM; against Staphylococcus aureus, greater than 700 µg/mL. In addition, the Activity entry is “Non-Toxic” in the series with Erythrocyte, “Non-Toxic” in series [2] and 18 mV in the series with Lipid bilayer [4].

Take H-NNEENELRRRVSFNRAVIHSLLG-NH2: the minimum inhibitory concentration (MIC) with Escherichia coli and with Staphylococcus aureus was greater than 700 µg/mL each time.

In the case of H-VSFNRAVIHSLLG-NH2, the MIC with Escherichia coli and in the series with Staphylococcus aureus was greater than 700 µg/mL throughout.

For H-YYQVSEERRRDLASLARLYALAR-NH2, the MIC in the series with Escherichia coli and with Staphylococcus aureus was greater than 700 µg/mL throughout.
